# In patent US6617438B1, “Oligoribonucleotides with enzymatic activity” (Sirna Therapeutics, Inc., priority 1997, dated 2003):
# Where “and” joins values, the source holds several entries; their conditions need not be identical. Identical values can stand only once. Like-named read-outs stand apart in the source and are kept apart here. Marks after values point to notes of the source that are not given here.
# Experiments:
# [1] = biological target: T1, Bacteriophage T7 RNA polymerase (wild type) (Escherichia phage T7, UniProt P00573); experiment: biochemical; assay type: biochemical; conditions: for activity at 2000 µM: read-out: % ribo control
# T1 construct: purchased Boehringer Mannheim
# Description: Bacteriophage T7 RNA polymerase was purchased from Boehringer Mannheim at 0.4 U/μL concentration. Applicant used the commercial buffer supplied with the enzyme and 0.2 μCi alpha-^32P NTP in a 50 μL reaction with nucleotides triphosphates at 2 mM each. The template was a double-stranded PCR fragment, which was used in previous screens. Reactions were carried out at 37° C. for 1 hour. Ten μL of the sample was run on a 7.5% analytical PAGE and bands were quantitated using a Phosphorlmager.
# [2] = biological target: T2, Y639F mutant T7 polymerase (Escherichia phage T7, UniProt P00573, Y639F); assay type: biochemical, bacteriophage T7
# [3] = biological target: T2, Y639F mutant T7 polymerase; assay type: biochemical, bacteriophage T7; remark: listed apart in the source
# BT-474 xenografts = conditions: combination study, dose not given; cited from earlier work
# [4] = high-risk patients; cited from earlier work
# [5] = COND# 1: 20 mM MgCl2, 10% methanol, 1 mM LiCl, no PEG, 25° C.
# [6] = COND# 2: 20 mM MgCl2, 10% methanol, 1 mM LiCl, 4% PEG, 25° C.
# [7] = COND# 3: 12 mM MgCl2, 4% PEG, 25° C.
# [8] = COND# 4: 12 mM MgCl2, 10% methanol, 4% PEG, 25° C.
# [9] = COND# 5: 12 mM MgCl2, 1 mM LiCl, 4% PEG, 25° C.
# [10] = COND# 6: 12 mM MgCl2, 10% methanol, 1 mM LiCl, 4% PEG, 25° C.
# [11] = COND# 7: 20 mM MgCl2, 10% methanol, 1 mM LiCl, no PEG, 37° C.
# [12] = COND# 8: 20 mM MgCl2, 10% methanol, 1 mM LiCl, 4% PEG, 37° C.
# [13] = COND# 9: 12 mM MgCl2, 4% PEG, 37° C.
# [14] = COND# 10: 12 mM MgCl2, 10% methanol, 4% PEG, 37° C.
# [15] = COND# 11: 12 mM MgCl2, 1 mM LiCl, 4% PEG, 37° C.
# [16] = COND# 12: 12 mM MgCl2, 10% methanol, 1 mM LiCl, 4% PEG, 37° C.
# [17] = wild type T7 polymerase, commercial buffer, 37° C., 1 hour, label GTP
# [18] = together with 2′-his-UTP, rATP and rGTP, condition number 9
# [19] = together with rUTP, condition number 9
# [20] = together with 2′-his-UTP and 2′-amino-CTP, same buffer (condition 9)
# [21] = together with rUTP and rCTP, same buffer (condition 9)
# [22] = wild type T7 polymerase, commercial buffer, 37° C., 1 hour, label ATP
# T2 sequence (P00573 whole entry Y639F, looked up): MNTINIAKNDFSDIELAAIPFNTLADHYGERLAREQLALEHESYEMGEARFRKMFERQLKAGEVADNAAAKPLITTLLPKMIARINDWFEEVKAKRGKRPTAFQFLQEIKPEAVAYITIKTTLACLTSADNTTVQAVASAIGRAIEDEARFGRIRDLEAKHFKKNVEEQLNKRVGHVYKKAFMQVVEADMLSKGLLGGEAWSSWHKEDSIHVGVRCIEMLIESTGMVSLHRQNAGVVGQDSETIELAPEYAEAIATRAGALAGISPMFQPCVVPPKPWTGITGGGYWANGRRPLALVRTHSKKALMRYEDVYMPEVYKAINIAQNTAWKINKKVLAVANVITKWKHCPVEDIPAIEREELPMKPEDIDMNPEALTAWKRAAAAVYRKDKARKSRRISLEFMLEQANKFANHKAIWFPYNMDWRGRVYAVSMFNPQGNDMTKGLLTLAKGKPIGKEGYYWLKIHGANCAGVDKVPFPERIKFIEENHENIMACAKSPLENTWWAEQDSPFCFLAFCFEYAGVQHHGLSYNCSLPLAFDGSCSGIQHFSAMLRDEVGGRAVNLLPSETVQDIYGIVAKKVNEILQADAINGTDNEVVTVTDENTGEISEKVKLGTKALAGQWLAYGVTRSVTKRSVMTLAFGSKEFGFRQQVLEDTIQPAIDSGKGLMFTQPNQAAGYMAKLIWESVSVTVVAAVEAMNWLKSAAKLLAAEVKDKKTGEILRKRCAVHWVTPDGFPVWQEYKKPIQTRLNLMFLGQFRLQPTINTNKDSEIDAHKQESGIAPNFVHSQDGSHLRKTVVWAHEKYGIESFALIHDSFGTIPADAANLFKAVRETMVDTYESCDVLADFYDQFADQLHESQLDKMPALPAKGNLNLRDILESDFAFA
# T1 sequence (P00573 whole entry): as the sequence (P00573 whole entry Y639F, looked up) above, with F639Y counted along it
compound,measurement,setting,value
2′-F—GTP,% ribo control,[1],4%
2′-dGTP,% ribo control,[1],3%
2′-deoxy-2′-amino-CTP [2′-NH2—CTP],"full-length transcript, percent compared to all-rNTP control",[2]; [5],11%
same,"full-length transcript, percent compared to all-rNTP control",[2]; [6],37%
same,"full-length transcript, percent compared to all-rNTP control",[2]; [7],45%
same,"full-length transcript, percent compared to all-rNTP control",[2]; [8],64%
same,"full-length transcript, percent compared to all-rNTP control",[2]; [9],25%
same,"full-length transcript, percent compared to all-rNTP control",[2]; [10],70%
same,"full-length transcript, percent compared to all-rNTP control",[2]; [11],26%
same,"full-length transcript, percent compared to all-rNTP control",[2]; [12],54%
same,"full-length transcript, percent compared to all-rNTP control",[2]; [13],292%
same,"full-length transcript, percent compared to all-rNTP control",[2]; [14],264%
same,"full-length transcript, percent compared to all-rNTP control",[2]; [15],109%
same,"full-length transcript, percent compared to all-rNTP control",[2]; [16],244%
same,% ribo control,[1]; [17],59%
same,percentage of incorporation compared to the all-RNA control,[3]; [18],9.5* %
same,percentage of incorporation compared to the all-RNA control,[3]; [19],232.7%
2′-deoxy-2′-amino-UTP [2′-NH2—UTP],% ribo control,[1],39%
"Nc1ncnc2c1ncn2[C@@H]1O[C@H](COP(=O)(O)OP(=O)(O)OP(=O)(O)O)[C@@H](O)[C@H]1F [2′-F—ATP, 2′-deoxy-2′-fluoro-adenine triphosphate]","full-length transcript, percent compared to all-rNTP control",[2]; [5],227%
same,"full-length transcript, percent compared to all-rNTP control",[2]; [6],252%
same,"full-length transcript, percent compared to all-rNTP control",[2]; [7],98%
same,"full-length transcript, percent compared to all-rNTP control",[2]; [8],103%
same,"full-length transcript, percent compared to all-rNTP control",[2]; [9],100%
same,"full-length transcript, percent compared to all-rNTP control",[2]; [10],116%
same,"full-length transcript, percent compared to all-rNTP control",[2]; [11],288%
same,"full-length transcript, percent compared to all-rNTP control",[2]; [12],278%
same,"full-length transcript, percent compared to all-rNTP control",[2]; [13],471%
same,"full-length transcript, percent compared to all-rNTP control",[2]; [14],198%
same,"full-length transcript, percent compared to all-rNTP control",[2]; [15],317%
same,"full-length transcript, percent compared to all-rNTP control",[2]; [16],185%
same,percentage of incorporation compared to the all-RNA control,[3]; [20],4%
same,percentage of incorporation compared to the all-RNA control,[3]; [21],222.6%
"O=c1ccn([C@@H]2O[C@H](COP(=O)(O)OP(=O)(O)OP(=O)(O)O)[C@@H](O)[C@H]2F)c(=O)[nH]1 [2′-F—UTP, 2′-deoxy-2′-fluoro-uridine triphosphate]","full-length transcript, percent compared to all-rNTP control",[2],100%
same,activity at 2000 µM,[1]; 1 h,100%
"Nc1nc(N)c2ncn([C@@H]3O[C@H](CO)C(O)C3N)c2n1 (stereo partly drawn) [2′-NH2—DAP, 2′-deoxy-2′amino-2,6-diaminopurine riboside]","full-length transcript, percent compared to all-rNTP control",[2],0% and 1%
same,percentage of incorporation compared to the all-RNA control,[3],8.9* % and 9.6%
"CSCO[C@@H]1[C@H](O)[C@@H](COP(=O)(O)OP(=O)(O)OP(=O)(O)O)O[C@H]1n1ccc(=O)[nH]c1=O [2′-O-MTM-UTP, 2′-O-methylthiomethyl-uridine-5 ′-triphosphate]",activity at 2000 µM,[1]; [22],64%
"CSCO[C@@H]1[C@H](O)[C@@H](CO)O[C@H]1n1cnc2c(N)ncnc21 [2′-O—MTM—ATP, 2′-O-methylthiomethyl adenosine]","full-length transcript, percent compared to all-rNTP control",[2],0% and 1%
same,activity at 2000 µM,[1]; [17],1%
"CSCO[C@@H]1[C@H](O)[C@@H](CO)O[C@H]1n1ccc(N)nc1=O [2′-O—MTM—CTP, 2′-O-methylthiomethyl cytidine]","full-length transcript, percent compared to all-rNTP control",[2],2% and 4% and 5% and 3% and 1%
same,percentage of incorporation compared to the all-RNA control,[3],5.9% and 5.1%
"CSCO[C@@H]1[C@H](O)[C@@H](CO)O[C@H]1n1cnc2c(=O)[nH]c(N)nc21 [2′-O—MTM—GTP, 2′-O-methylthiomethyl guanosine]","full-length transcript, percent compared to all-rNTP control",[2],6% and 3% and 1% and 4% and 2% and 0%
same,activity at 2000 µM,[1]; [22],3%
CO[C@@H]1[C@H](O)[C@@H](COP(=O)(O)OP(=O)(O)OP(=O)(O)O)O[C@H]1n1cnc2c(N)ncnc21 [2′-O—Me—ATP],"full-length transcript, percent compared to all-rNTP control",[2],0% and 2% and 1%
"COC1C(O)[C@@H](CO)O[C@H]1n1cnc2c(N)nc(N)nc21 (stereo partly drawn) [2′-O—Me—DAP, 2′-O-methyl-2,6-diaminopurine riboside]","full-length transcript, percent compared to all-rNTP control",[2],4% and 5% and 3%
same,percentage of incorporation compared to the all-RNA control,[3],1.9% and 5.7%
"CO[C@@H]1[C@H](O)[C@@H](COP(=O)(O)OP(=O)(O)OP(=O)(O)O)O[C@H]1n1cnc2c(=O)[nH]c(N)nc21 [2′-O—Me—GTP, 2′-O-methyl-guanosine-5′-Triphosphate]","full-length transcript, percent compared to all-rNTP control",[2],4% and 5% and 3% and 2%
same,activity at 2000 µM,[1]; 1 h,3%
"NO[C@@H]1[C@H](O)[C@@H](CO)O[C@H]1n1ccc(=O)[nH]c1=O [2′-O—NH2—UTP, 2′-O-amino-uridine]",activity at 2000 µM,[1]; [22],1%
Nc1ncnc2c1ncn2[C@H]1C[C@H](O)[C@@H](COP(=O)(O)OP(=O)(O)OP(=O)(O)O)O1 [2′-dATP],"full-length transcript, percent compared to all-rNTP control",[2]; [5],9%
same,"full-length transcript, percent compared to all-rNTP control",[2]; [6],3%
same,"full-length transcript, percent compared to all-rNTP control",[2]; [7],19%
same,"full-length transcript, percent compared to all-rNTP control",[2]; [8],23%
same,"full-length transcript, percent compared to all-rNTP control",[2]; [9],9%
same,"full-length transcript, percent compared to all-rNTP control",[2]; [10],24%
same,"full-length transcript, percent compared to all-rNTP control",[2]; [11],6%
same,"full-length transcript, percent compared to all-rNTP control",[2]; [12],3%
same,"full-length transcript, percent compared to all-rNTP control",[2]; [13],84%
same,"full-length transcript, percent compared to all-rNTP control",[2]; [14],70%
same,"full-length transcript, percent compared to all-rNTP control",[2]; [15],28%
same,"full-length transcript, percent compared to all-rNTP control",[2]; [16],51%
same,percentage of incorporation compared to the all-RNA control,[3]; [20],2.3%
same,percentage of incorporation compared to the all-RNA control,[3]; [21],146.3%
"NCCC(=O)N[C@@H]1[C@H](O)[C@@H](CO)O[C@H]1n1ccc(=O)[nH]c1=O [2′-β NH2-ala-UTP, 2′-(N-β-alanyl)amino-2′-deoxy uridine]",activity at 2000 µM,[1]; [22],3%
COC1C(O)[C@@H](CO)O[C@H]1n1cc(CCCN)c(=O)[nH]c1=O (stereo partly drawn) [5-(3-aminopropyl)-2′-O-methyl uridine],"full-length transcript, percent compared to all-rNTP control",[2],4% and 10%
same,activity at 2000 µM,[1]; [17],0%
Nc1ncnc2c1ncn2[C@@H]1O[C@H](COP(=O)(O)OP(=O)(O)OP(=O)(O)O)[C@@H](O)[C@H]1O [ATP],percentage of incorporation compared to the all-RNA control,[3]; [20],15.7%
same,percentage of incorporation compared to the all-RNA control,[3]; [21],100%
Nc1ccn([C@@H]2O[C@H](COP(=O)(O)OP(=O)(O)OP(=O)(O)O)[C@@H](O)[C@H]2O)c(=O)n1 [CTP],percentage of incorporation compared to the all-RNA control,[3]; [18],16.1%
same,percentage of incorporation compared to the all-RNA control,[3]; [19],100%
"CC(N)C(=O)NC1C(O)[C@@H](CO)O[C@H]1n1ccc(=O)[nH]c1=O (stereo partly drawn) [ala-2′-NH2—UTP, 2′-(N-alanyl) amino-2′-deoxy-uridine]",activity at 2000 µM,[1]; [22],2%
CC(=O)O[C@H]1C(=O)[C@@]2(C)[C@H]([C@H](OC(=O)c3ccccc3)[C@]3(O)C[C@H](OC(=O)[C@H](O)[C@@H](NC(=O)c4ccccc4)c4ccccc4)C(C)=C1C3(C)C)[C@]1(OC(C)=O)CO[C@@H]1C[C@@H]2O [paclitaxel],inhibition of tumor growth,BT-474 xenografts,35%
"NC(Cc1ccccc1)C(=O)NC1C(O)[C@@H](CO)O[C@H]1n1ccc(=O)[nH]c1=O (stereo partly drawn) [phe-2′-NH2—UTP, 2′-(N-phenylalanyl)amino-2′-deoxy-uridine]","full-length transcript, percent compared to all-rNTP control",[2],8% and 6% and 10% and 12% and 7% and 4%
same,activity at 2000 µM,[1]; [22],1%
CC/C(=C(\c1ccccc1)c1ccc(OCCN(C)C)cc1)c1ccccc1 [tamoxifen],reduction of breast cancer incidence,[4],49%
